In the NIST ThermoML archive (doi:10.1016/j.jct.2018.09.027):
Numbers after ± are expanded uncertainties.

Settings: Crystal; for vapor or sublimation pressure: Calculated from knudsen effusion weight loss

O=C(O)c1cc(O)c(O)c(O)c1 [3,4,5-trihydroxybenzoic acid]
Settings | Normal melting temperature [°C] | vapor or sublimation pressure [kPa]
432.88 K | – | 9.61e-05 ± 2e-05
434.44 K | – | 0.0001197 ± 2e-05
436.46 K | – | 0.0001349 ± 2.1e-05
438.62 K | – | 0.0001688 ± 2.1e-05
440.5 K | – | 0.0001779 ± 2.1e-05
442.58 K | – | 0.0002341 ± 2.2e-05
444.57 K | – | 0.000257 ± 2.2e-05
446.54 K | – | 0.000313 ± 2.3e-05
448.7 K | – | 0.0003927 ± 2.4e-05
450.78 K | – | 0.0004674 ± 2.6e-05
452.6 K | – | 0.0005635 ± 2.8e-05
454.63 K | – | 0.0006284 ± 3e-05
456.47 K | – | 0.0008057 ± 3.5e-05
458.78 K | – | 0.0009376 ± 3.9e-05
DTA | 263.5 ± 0.7 | –
